Measurements reported in patent US20240156832A1, “METHODS OF METABOLIZING METOPIMAZINE AND ITS SALTS” (Neurogastrx, Inc., priority 2020, published 2024).

Key:
[1] = Incubation of MPZ in human liver S9; assay type: in vitro ADME
Method: Initial experiment was conducted with S9 fractions from liver and intestine to assess the role of liver and intestinal enzymes in the metabolism of MPZ. The reaction mixture contained 2.5 μM MPZ, pooled human liver or intestine S9 fraction (1 mg/mL S9 protein), 100 mM KPi buffer (pH 7.4). The reaction mixture was pre-incubated for 3-5 min at 37° C. in a humidified incubator filled with 5% CO2 followed by the addition of NADPH (1 mM) to initiate the reaction. The reaction was incubated for 0 and 60 min. The total percentage of organic solvent in incubation mixture was <0.1%. The reactions were terminated by the addition of sample mixture of acetonitrile and ethanol (90:10, v/v). The positive control substrate, 7-EC, was incubated in triplicate in an identical manner as MPZ for S9 fractions.

[2] = for Peak Area at Time 0 / Peak Area at Time 90 min: metopimazine incubation in human liver microsomes, full scan LC-MS
Method: For protein concentration optimization, MPZ at 1 μM was incubated with varying concentration of HLM proteins (0.1, 0.25, 0.5, and 1.0 mg/mL microsomal protein), 100 mM KPi buffer (pH 7.4). After pre-incubation for 3-5 minutes at 37° C., the reaction was initiated by the addition of NADPH (1 mM) for 60 minutes in triplicates.
For incubation time optimization, MPZ at 1 μM was incubated with pooled HLM (0.5 mg/mL microsomal protein) and 100 mM KPi buffer (pH 7.4). After pre-incubation for) for 3-5 minutes at 37° C., the reaction was initiated by the addition NADPH (1 mM) incubated for 0, 10, 20, 40, 60, and 90 minutes to determine the optimal incubation time (linear range). All metabolic reactions in this study were terminated by the addition of chilled organic solvent (acetonitrile:ethanol 90:10, v/v) containing internal standards, unless otherwise indicated.
LC separation conditions were developed for MPZ and its metabolites (MPZA and MPZS), 7 hydroxycoumarin, each metabolite of CYP probe substrate, benzydamine N oxide, and phthalazine. The LC MS/MS system consisted of a Shimadzu Nexera X2 LC-30 UPLC system (Shimadzu Corporation, Kyoto, Japan), and an API 4000 triple quadrupole mass spectrometer (SCIEX, Framingham, MA) was used for analysis. All analytes were analyzed using electrospray ionization (ESI) in positive ion mode except for 7-EC, which used negative ion mode. The LC-MS/MS system was controlled by Analyst software (version 1.6.1, SCIEX, Framingham, MA).
For each analytical method, a calibration curve was generated for the quantification of MPZ and its two metabolites (MPZA and MPZS). […] PAR was also used for all positive control compounds.
% parent remaining=(mean concentration or PAR at each sampling time point/mean concentration or PAR of time zero)×100

other CYP enzymes = experiment: Incubation with the other recombinant CYP isoforms; assay type: in vitro ADME, human; conditions: 1 μM MPZ, 60 min
Description: All other procedures were the same as described previously.

[3] = system: rhFMO1, rhFMO3, and rhFMO5; experiment: Incubation with recombinant FMO; assay type: in vitro ADME, human; conditions: 1 μM MPZ, pH 8.4
Method: Protein concentrations for all rFMO isoforms were 0.05 mg/mL. A positive control (benzydamine, 100 μM) was incubated for 20 minutes. […] All other procedures were the same as described previously. The negative control reactions were incubated absence of NADPH.

Rat PK study = assay type: in vivo, Sprague Dawley rats
Method: The pharmacokinetics of metopimazine (parent) and metopimazine acid (metabolite) were evaluated in male and female Sprague Dawley rats following a single oral dose of 45 mg/kg metopimazine (free base). Three animals per sex in each dose group were sampled at each timepoint after administration (0.25, 0.5, 1, 2, 4, 8, 12, and 24 hours). The rats (Rattus norvegicus) were obtained from Envigo RMS, Inc. (Indianapolis, IN) and were 2 months old. Animals were weighed prior to each dose administration for the purpose of dose calculation. Whole venous blood samples of approximately 0.5 mL were collected from a peripheral vein of animals for determination of exposure to metopimazine and metopimazine acid. Three animals per sex were sampled at each timepoint. Samples were collected in tubes containing K2EDTA with protease inhibitor cocktail (Sigma, #P8340, at ratio 1:100) and placed on ice until processed for plasma by centrifugation under refrigeration for at least ten minutes at 3000 rpm. After centrifugation, supernatant was removed and stored frozen in a −70° C. freezer until analyzed by LC-MS/MS.
(§1) An MRM LC-MS/MS method was developed for MPZ and metopimazine acid (MPZA) in rat, dog, and human plasma. The method was run in reverse phase in positive ion mode. […] D6-isotopically labeled internal standards were used for each analyte. The following m/z transitions were monitored: metopimazine 446.3→141.1 and metopimazine acid 447.2→142.1.
(§2) Noncompartmental Pharmacokinetics analysis was performed in Phoenix 64 Winnonlin version 8.1.

Dog PK study = assay type: in vivo, beagle dogs
Method: The pharmacokinetics of metopimazine (parent) and metopimazine acid (metabolite) were evaluated in three male, beagle dogs following a single oral dose of 10 mg/kg metopimazine (free base). The dogs were obtained from Marshall BioResources (North Rose, NY). Animals were weighed prior to each dose administration for the purpose of dose calculation. Metopimazine was administered in size 13 gelatin capsules. Whole venous blood samples of approximately 1.0 mL were collected from a peripheral vein of all animals for determination of metopimazine and metopimazine acid. Samples were collected at the following timepoints: 0.25, 0.5, 1, 2, 4, 8, 12, and 24 hours after test article administration. All animals were sampled at each timepoint. Samples were collected in tubes containing K2EDTA and placed on ice until processed for plasma by centrifugation under refrigeration for at least ten minutes at 3000 rpm. After centrifugation, supernatant was removed and stored frozen in a −70° C. freezer until analyzed by LC-MS/MS.
as §1, §2

human D2 receptor = human D2 receptor (Homo sapiens, UniProt P14416); conditions: relative to MPZ; cited from earlier work
[4] = female, Sprague Dawley, rat, in vivo, po, 45 mg/kg
[5] = male, Sprague Dawley, rat, in vivo, po, 45 mg/kg
[6] = male, beagle, dog, in vivo, po, 10 mg/kg

human D2 receptor, sequence (P14416 whole entry): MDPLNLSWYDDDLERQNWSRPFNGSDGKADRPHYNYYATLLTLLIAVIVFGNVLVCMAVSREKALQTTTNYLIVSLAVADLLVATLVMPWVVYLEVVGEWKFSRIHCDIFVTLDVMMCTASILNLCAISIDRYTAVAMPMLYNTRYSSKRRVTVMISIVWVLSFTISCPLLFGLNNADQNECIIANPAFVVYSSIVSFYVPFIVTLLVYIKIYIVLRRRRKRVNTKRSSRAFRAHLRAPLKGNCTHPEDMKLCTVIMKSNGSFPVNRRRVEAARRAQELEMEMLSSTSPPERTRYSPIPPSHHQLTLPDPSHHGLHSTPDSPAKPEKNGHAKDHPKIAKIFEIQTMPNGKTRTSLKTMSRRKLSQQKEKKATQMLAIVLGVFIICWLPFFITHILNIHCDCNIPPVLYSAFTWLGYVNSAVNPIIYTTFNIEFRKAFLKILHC

| SMILES | MPZ disappeared ([1]; human liver S9 1 mg/mL, 2.5 μM MPZ, NADPH, 60-minute incubation) | MPZ remaining ([2]; human, microsomes, 1 h, 1 μM, pH 7.4) [%] | Peak Area at Time 0 [2] | Peak Area at Time 90 min [2] | contribution of other CYP enzymes to MPZ metabolism (other CYP enzymes) | metabolism of MPZ by recombinant FMO enzymes [3] | AUCinf (Rat PK study; [4]) [ng·h/mL] | Cmax (Rat PK study; [4]) [ng/mL] | Tmax (Rat PK study; [4]) [h] | AUCinf (Rat PK study; [5]) [ng·h/mL] | Cmax (Rat PK study; [5]) [ng/mL] | AUC(0-inf) (Dog PK study; [6]) [ng·h/mL] | Tmax (Dog PK study; [6]) [h] | metabolites formed ([1]; human liver S9, 60-minute incubation) | AUC(0-inf) (Rat PK study; [4]) [ng·h/mL] | MPZA metabolite to parent ratio compared with humans (Rat PK study; rats) | MPZA metabolite to parent ratio compared with humans (Dog PK study; dogs) | less potent at the human D2 receptor compared to the parent (human D2 receptor) |
| --- | --- | --- | --- | --- | --- | --- | --- | --- | --- | --- | --- | --- | --- | --- | --- | --- | --- | --- |
| CS(=O)(=O)c1ccc2c(c1)N(CCCN1CCC(C(N)=O)CC1)c1ccccc1S2 [MPZ, metopimazine] | approximately 30% | 37.2 | 2373 | 715 | None of the other CYP enzymes appeared to have significant contribution | did not metabolize MPZ | 13800 | 1730 | 4 | 8160 | 1080 | 3190 | 0.833 |  |  |  |  |  |
| CS(=O)(=O)c1ccc2c(c1)N(CCCN1CCC(C(=O)O)CC1)c1ccccc1S2 [MPZA, metopimazine acid] |  |  | 0 | 208 |  |  |  | 106 | 4 | 755 | 89 | 1030 |  | formed | 944 | particularly lower in rats | far lower in dogs | about 200 fold |
